Source: ChEMBL document CHEMBL3885861, “Open TG-GATES”
*1 amine or outer side, *2 acyl side, *3 side chain or, on linkers, in order; H or OH if unused. Where a SMILES comes first, the peptide text is derived from it. Bridges are numbered along the chain shown (N, C = ends). [ ]: non-standard residue; d: D form. Trp(2-yl) = O=C([C@H](Cc1c([*:3])[nH]c2ccccc12)N[*:1])[*:2]; Leu(4R-OH,5-OH) = C[C@](O)(CO)C[C@H](N)C(=O)O; cisHyp = O=C(O)[C@@H]1C[C@H](O)CN1

Species: Rattus norvegicus
Test: Open TG-GATES - Regimen: Single
Assay type: toxicity, organism-based, Sprague-Dawley
Set-up: regimen Single, gender Male, age 6 weeks
Conditions: in vivo, ip, 0 mg/kg, route intraperitoneal injection, dose level Control; for APTT / Bas / Eos / Fbg / Hb / Ht / Lym / MCH / MCHC / MCV / Mono / Neu / PT / Plat / RBC / Ret / WBC: tissue Blood; for KIDNEY_L / KIDNEY_R / KIDNEY_TOTAL: tissue Kidney; for LIVER: tissue Liver; for A/G / ALP / ALT / AST / BUN / CRE / Ca / Cl / DBIL / GLC / IP / K / LDH / Na / PL / RALB / TBIL / TC / TG / TP / gamma-GTP: tissue Plasma

In the case of `C[C@@H]1NC(=O)[C@H](C[C@@](C)(O)CO)NC(=O)[C@@H]2Cc3c([nH]c4ccccc34)SC[C@H](NC(=O)[C@@H]([C@H](C)O)NC1=O)C(=O)N1C[C@@H](O)C[C@H]1C(=O)N[C@@H](C)C(=O)N2` [PHALLOIDIN] (cyclo(A[dT]C[cisHyp]A[Trp(2-yl)][Leu(4R-OH,5-OH)]); thioether 3-6), the TERMINAL_BW (3 h) is reported as 206 g, the APTT (3 h) is reported as 23.6 s and the Bas (3 h) is reported as 0%. It also gave an Eos (3 h) of 0.2%, a Fbg (3 h) of 283.8 mg/dL and a Hb (3 h) of 12.9 g/dL. The Ht (3 h) was 40.5%, the Lym (3 h) was 73.8% and the MCH (3 h) was 20.1 pg. For the same molecule, the MCHC (3 h) was 32%, the MCV (3 h) was 62.8 fL and the Mono (3 h) was 2.4%. The Neu (3 h) was 22.8%, the PT (3 h) was 16.1 s and the Plat (3 h) was 112.9 x10_4/uL. The RBC (3 h) was 645 x10_4/ul, the Ret (3 h) was 7.5% and the WBC (3 h) was 74.9 x10_2/uL. The KIDNEY_L (3 h) was 0.9 g, the KIDNEY_R (3 h) was 0.9 g and the KIDNEY_TOTAL (3 h) was 1.8 g. For the same molecule, the LIVER (3 h) was 8.6 g, the A/G (3 h) was 1.2 and the ALP (3 h) was 1620.6 IU/L. For the same molecule, the ALT (3 h) was 45.2 IU/L, the AST (3 h) was 76.4 IU/L and the BUN (3 h) was 11.2 mg/dL. It also gave a CRE (3 h) of 0.2 mg/dL, a Ca (3 h) of 10.4 mg/dL and a Cl (3 h) of 108.6 meq/L. For the same molecule, the DBIL (3 h) was 0 mg/dL, the GLC (3 h) was 187.8 mg/dL and the IP (3 h) was 8.4 mg/dL. For the same molecule, the K (3 h) was 3.8 meq/L, the LDH (3 h) was 165.2 IU/L and the Na (3 h) was 141.8 meq/L. It also gave a PL (3 h) of 132 mg/dL, an RALB (3 h) of 2.8 g/dL and a TBIL (3 h) of 0 mg/dL. The TC (3 h) was 81 mg/dL, the TG (3 h) was 66.2 mg/dL and the TP (3 h) was 5.2 g/dL. It also gave a gamma-GTP (3 h) of 1 IU/L, a TERMINAL_BW (6 h) of 208.8 g and an APTT (6 h) of 22.5 s. For the same molecule, the Bas (6 h) was 0%, the Eos (6 h) was 0.4% and the Fbg (6 h) was 305.6 mg/dL. The Hb (6 h) was 12.5 g/dL, the Ht (6 h) was 38.7% and the Lym (6 h) was 79.6%. The MCH (6 h) was 20.4 pg, the MCHC (6 h) was 32.2% and the MCV (6 h) was 63.4 fL. It also gave a Mono (6 h) of 1.8%, a Neu (6 h) of 17.2% and a PT (6 h) of 16 s. For the same molecule, the Plat (6 h) was 126.1 x10_4/uL, the RBC (6 h) was 611.2 x10_4/ul and the Ret (6 h) was 7.3%. For the same molecule, the WBC (6 h) was 94.6 x10_2/uL, the KIDNEY_L (6 h) was 0.9 g and the KIDNEY_R (6 h) was 0.9 g. The KIDNEY_TOTAL (6 h) was 1.8 g, the LIVER (6 h) was 9.1 g and the A/G (6 h) was 1.2. For the same molecule, the ALP (6 h) was 1368 IU/L, the ALT (6 h) was 38 IU/L and the AST (6 h) was 69 IU/L. For the same molecule, the BUN (6 h) was 15.6 mg/dL, the CRE (6 h) was 0.2 mg/dL and the Ca (6 h) was 10.5 mg/dL. The Cl (6 h) was 106.2 meq/L, the DBIL (6 h) was 0 mg/dL and the GLC (6 h) was 195.8 mg/dL. It also gave an IP (6 h) of 7.8 mg/dL, a K (6 h) of 4.2 meq/L and an LDH (6 h) of 168.6 IU/L. The Na (6 h) was 141.2 meq/L, the PL (6 h) was 137 mg/dL and the RALB (6 h) was 2.8 g/dL. The TBIL (6 h) was 0 mg/dL, the TC (6 h) was 82 mg/dL and the TG (6 h) was 63 mg/dL. For the same molecule, the TP (6 h) was 5.2 g/dL, the gamma-GTP (6 h) was 1.4 IU/L and the TERMINAL_BW (9 h) was 208.4 g. It also gave an APTT (9 h) of 22.5 s, a Bas (9 h) of 0% and an Eos (9 h) of 0.4%. It also gave a Fbg (9 h) of 290.4 mg/dL, a Hb (9 h) of 12.5 g/dL and a Ht (9 h) of 39.2%. For the same molecule, the Lym (9 h) was 79.4%, the MCH (9 h) was 20.4 pg and the MCHC (9 h) was 31.9%. It also gave an MCV (9 h) of 63.8 fL, a Mono (9 h) of 1.6% and a Neu (9 h) of 18%. For the same molecule, the PT (9 h) was 15.9 s, the Plat (9 h) was 120.7 x10_4/uL and the RBC (9 h) was 613.6 x10_4/ul. It also gave a Ret (9 h) of 7.1%, a WBC (9 h) of 83.1 x10_2/uL and a KIDNEY_L (9 h) of 0.9 g. It also gave a KIDNEY_R (9 h) of 1 g, a KIDNEY_TOTAL (9 h) of 1.9 g and an LIVER (9 h) of 9.2 g. For the same molecule, the A/G (9 h) was 1.2, the ALP (9 h) was 1788.6 IU/L and the ALT (9 h) was 45.2 IU/L. It also gave an AST (9 h) of 75.4 IU/L, a BUN (9 h) of 13.4 mg/dL and a CRE (9 h) of 0.2 mg/dL. For the same molecule, the Ca (9 h) was 10.5 mg/dL, the Cl (9 h) was 105 meq/L and the DBIL (9 h) was 0 mg/dL. It also gave a GLC (9 h) of 202.8 mg/dL, an IP (9 h) of 7.7 mg/dL and a K (9 h) of 4.3 meq/L. The LDH (9 h) was 145.6 IU/L, the Na (9 h) was 140.8 meq/L and the PL (9 h) was 134.8 mg/dL. The RALB (9 h) was 2.9 g/dL, the TBIL (9 h) was 0.004 mg/dL and the TC (9 h) was 79 mg/dL. It also gave a TG (9 h) of 71.2 mg/dL, a TP (9 h) of 5.3 g/dL and a gamma-GTP (9 h) of 1.4 IU/L. For the same molecule, the TERMINAL_BW (24 h) was 216 g, the APTT (24 h) was 22.7 s and the Bas (24 h) was 0%. The Eos (24 h) was 0.6%, the Fbg (24 h) was 321.6 mg/dL and the Hb (24 h) was 12.3 g/dL. It also gave a Ht (24 h) of 38.4%, a Lym (24 h) of 83.8% and an MCH (24 h) of 20.3 pg. It also gave an MCHC (24 h) of 32.1%, an MCV (24 h) of 63.4 fL and a Mono (24 h) of 1.6%. It also gave a Neu (24 h) of 13.4%, a PT (24 h) of 16 s and a Plat (24 h) of 120 x10_4/uL. For the same molecule, the RBC (24 h) was 606.2 x10_4/ul, the Ret (24 h) was 7.7% and the WBC (24 h) was 76.3 x10_2/uL. The KIDNEY_L (24 h) was 1 g, the KIDNEY_R (24 h) was 1 g and the KIDNEY_TOTAL (24 h) was 2 g. The LIVER (24 h) was 9.4 g, the A/G (24 h) was 1.2 and the ALP (24 h) was 1563.4 IU/L. For the same molecule, the ALT (24 h) was 40.8 IU/L, the AST (24 h) was 69 IU/L and the BUN (24 h) was 14 mg/dL. It also gave a CRE (24 h) of 0.2 mg/dL, a Ca (24 h) of 10.5 mg/dL and a Cl (24 h) of 105.4 meq/L. The DBIL (24 h) was 0.002 mg/dL, the GLC (24 h) was 196 mg/dL and the IP (24 h) was 8.9 mg/dL. It also gave a K (24 h) of 3.9 meq/L, an LDH (24 h) of 182.4 IU/L and a Na (24 h) of 141.6 meq/L. For the same molecule, the PL (24 h) was 144.2 mg/dL, the RALB (24 h) was 2.9 g/dL and the TBIL (24 h) was 0.002 mg/dL. The TC (24 h) was 85.6 mg/dL, the TG (24 h) was 55.4 mg/dL and the TP (24 h) was 5.3 g/dL. It also gave a gamma-GTP (24 h) of 1.8 IU/L.
